The series can be described thus: Phase 1 oral iron interaction study, Cohort 2 (before meal): sucroferric oxyhydroxide. Type of series: in vivo, human. The conditions noted are these: for AUC(0-inf) / AUC(0-t) / Cmax / half-life: male, human, plasma, oral; for AUC(0-inf): read-out: AUC(0-inf), LS geometric mean; for AUC(0-t): read-out: AUC(0-last), LS geometric mean; for Cmax: read-out: Cmax, LS geometric mean; for half-life: read-out: t1/2, LS geometric mean (converted). The text has this: The study included 3 periods as follow: • Screening: performed within 4 weeks before the day of administration of the study drug. • Evaluation period: Cohort 1 was confined to the study site for 10-night, 11-day. Cohort 2 and Cohort 3 were confined to the study site for 7 nights and 8 days. • Post-administration tests: performed 3 days after administration of the last dose of the study drug.
In Cohort 2, 20 subjects were further randomized into 2 groups (10 subjects per group) and the evaluation period was divided into 2 periods during the study:
Administration of vadadustat tablets alone: after fasting for at least 10 hours and immediately before eating breakfast (5 minutes before starting the meal), 1 vadadustat tablet (150 mg) will be taken orally with 200 mL of water, then breakfast would be eaten over a period of 10 minutes (extra water may be drunk if more is needed when taking the tablet, and the extra volume would be recorded). After breakfast, subjects would fast until the end of the collection of blood samples at 4 hours after administration of the study drug. Subjects would eat lunch over a period of 20 minutes after blood samples were collected at 4 hours after administration of the study drug. After lunch, subjects would fast until dinner, when they would eat dinner over a period of 20 minutes at 10 hours after administration of the study drug. Subjects would fast from dinner until breakfast the next morning.
Administration of vadadustat tablets and sucroferric oxyhydroxide: after fasting for at least 10 hours and immediately before eating breakfast (5 minutes before starting the meal), subjects would chew and swallow 2 tablets of sucroferric oxyhydroxide (containing 1000 mg of iron), then 1 vadadustat tablet (150 mg) would be taken orally with 200 mL of water, then breakfast would be eaten over a period of 10 minutes (extra water may be drunk if more is needed when taking the tablets, and the extra volume would be recorded). After breakfast, subjects would fast until the end of the collection of blood samples at 4 hours after administration of the study drug. After blood samples were collected at 4 hours after administration of the study drug and immediately before lunch, subjects would chew and swallow 2 tablets of sucroferric oxyhydroxide (containing 1000 mg of iron), then eat lunch over a period of 20 minutes. After lunch, subjects will fast until dinner, and immediately before dinner at 10 hours after administration of the study drug, chew and swallow 2 tablets of sucroferric oxyhydroxide (containing 1000 mg of iron), then eat dinner over a period of 20 minutes. Subjects would fast from dinner until breakfast the next morning.

Setting [1] is: 150 mg with sucroferric oxyhydroxide (1000 mg iron), before meal.

Where two headings read alike, the source gives them in different places.

One may read the AUC(0-inf) as the area under the concentration-time curve extrapolated to infinity. By Cmax is commonly meant the maximum level reached in the sampled fluid or tissue.

For `O=C(O)CNC(=O)c1ncc(-c2cccc(Cl)c2)cc1O` [Compound 1, {[5-(3-chlorophenyl)-3-hydroxypyridine-2-carbonyl]amino}acetic acid], under setting [1], the “Kel, LS geometric mean” value came out at 0.16 h⁻¹; the AUC(0-inf) is 45700 ng·h/mL; the AUC(0-t) is 44500 ng·h/mL; the peak concentration (Cmax) is 8810 ng/mL. The half-life under setting [1] is 4.33 h. For the same compound, the “Kel, LS geometric mean” value (Compound 1 150 mg alone, before meal) was determined as 0.13 h⁻¹. Also, where the note is “150 mg”, the AUC(0-inf) stood at 99500 ng·h/mL, the AUC(0-t) worked out at 95700 ng·h/mL, the peak concentration (Cmax) was found to be 15200 ng/mL and the half-life is 5.17 h.

Values taken from patent US20230263786A1, “MODULATION OF DRUG-DRUG INTERACTIONS OF VADADUSTAT” (Akebia Therapeutics, Inc., priority 2020, published 2023).
